Test results published in patent US20150284381A1, “AMINO-PYRIDINE-CONTAINING SPLEEN TYROSINE KINASE (SYK) INHIBITORS” (MERCK SHARP & DOHME CORP., priority 2012, published 2015).
pIC50: −log10 of the molar value.

These compounds were tested against T1, recombinant human GST-Syk (Homo sapiens, UniProt P43405) (assay: Homogeneous Time-Resolved Fluorescence (HTRF) assay for the recombinant human Syk enzyme). Conditions: recombinant human GST-Syk 5 pM, ATP 25 μM, 45 min at rt, read-out: rhSyk.
T1 construct: purchased Carna Biosciences 08-176
Format: biochemical
Experimental: Homogeneous Time-Resolved Fluorescence (HTRF) Assay for the Recombinant Human Syk Enzyme
A recombinant GST-hSyk fusion protein was used to measure potency of compounds to inhibit human Syk activity. The recombinant human GST-Syk (Carna Biosciences #08-176) (5 pM nominal concentration) was incubated with various concentrations of the inhibitor diluted in DMSO (0.1% final concentration) for 10 minutes at rt in 15 mM Tris-HCl (pH 7.5), 0.01% tween 20, 2 mM DTT in 384 well plate format. To initiate the reaction the biotinylated substrate peptide (250 nM final concentration) that contains the phosphorylation site for Syk was added with magnesium (5 mM final concentration) and ATP (25 μM final concentration). Final volume of the reaction was 10 μL. Phosphorylation of the peptide was allowed to proceed for 45′ at rt. To quench the reaction and detect the phosphorylated product, 2 nM of a Europium-anti-phosphotyrosine antibody (Perkin Elmer #AD0161) and 70 nM SA-APC (Perkin-Elmer #CR130-100) were added together in 15 mM Tris pH 7.5, 40 mM EDTA, 0.01% tween 20. Final volume of the quenching solution was 10 μL. The resulting HTRF signal was measured after 30 minutes on a EnVision (Perkin-Elmer) reader using a time-resolved fluorescence protocol. IC50 was determined following 10-dose titration (10 μM to 0.508 nM) and four parameter logistic curve fitting using an assay data analyzer.

Q: With `Cc1cc(Nc2cc(C(C)F)ccn2)nc(-c2cnc(C3(O)CCCc4cc(C(=O)O)ccc43)s2)c1` (single isomer, unassigned) [Example 8A, 5-(5-(6-((4-(1-Fluoroethyl)pyridin-2-yl)amino)-4-methylpyridin-2-yl)thiazol-2-yl)-5-hydroxy-5,6,7,8-tetrahydronaphthalene-2-carboxylic acid] as the compound, how does the pIC50 read?
A: 8.70

Q: `Cc1cc(Nc2cc(C(F)(F)F)ccn2)nc(-c2cnc(C3(O)CCCc4c3ccc(C(=O)O)c4F)s2)c1` (single isomer, unassigned) [Example 1J, (R or S)-1-fluoro-5-hydroxy-5-[5-(4-methyl-6-{[4-(trifluoromethyl)pyridin-2-yl]amino}pyridin-2-yl)-1,3-thiazol-2-yl]-5,6,7,8-tetrahydronaphthalene-2-carboxylic acid] was tested. Which pIC50 did it give?
A: 10.40

Q: With `Cc1cc(Nc2cc(C(F)(F)F)ccn2)nc(-c2cnc(C3(O)CCCc4cc(C(=O)O)c(Br)cc43)s2)c1` (single isomer, unassigned) [Example 1B, 3-Bromo-5-hydroxy-5-[5-(4-methyl-6-{[4-(trifluoromethyl)pyridin-2-yl]amino}pyridin-2-yl)-1,3-thiazol-2-yl]-5,6,7,8-tetrahydronaphthalene-2-carboxylic acid] as the compound, how does the pIC50 read?
A: 9.29

Q: `CCOc1ccnc(Nc2cc(C)cc(-c3cnc([C@@]4(O)CCCc5cc(C(=O)O)ccc54)s3)n2)c1` [Example 2E, (5R)-5-(5-{6-[(4-ethoxypyridin-2-yl)amino]-4-methylpyridin-2-yl}-1,3-thiazol-2-yl)-5-hydroxy-5,6,7,8-tetrahydronaphthalene-2-carboxylic acid] was tested. Which pIC50 did it give?
A: 9.80

Q: `Cc1cc(Nc2cc(C3CC3)ccn2)nc(-c2cnc([C@@]3(O)CCc4cc(C(=O)O)ccc43)s2)c1` [Example 2C, (1R)-1-(5-{6-[(4-cyclopropylpyridin-2-yl)amino]-4-methylpyridin-2-yl}-1,3-thiazol-2-yl)-1-hydroxy-2,3-dihydro-1H-indene-5-carboxylic acid] was tested. Which pIC50 did it give?
A: 9.26

Q: How did the pIC50 turn out when `Cc1cc(Nc2cc(C(C)F)ccn2)nc(-c2cnc(C3(O)CCCc4cc(C(=O)O)ccc43)s2)c1` (single isomer, unassigned) [Example 8C, 5-(5-(6-((4-(1-Fluoroethyl)pyridin-2-yl)amino)-4-methylpyridin-2-yl)thiazol-2-yl)-5-hydroxy-5,6,7,8-tetrahydronaphthalene-2-carboxylic acid] was run?
A: 8.70

Q: With `Cc1cc(Nc2cc(C3CC3)ccn2)nc(-c2cnc(C3(O)CCCc4cc(C(=O)O)c(F)cc43)s2)c1` (single isomer, unassigned) [Example 1G, (R or S)-5-(5-{6-[(4-cyclopropylpyridin-2-yl)amino]-4-methylpyridin-2-yl}-1,3-thiazol-2-yl)-3-fluoro-5-hydroxy-5,6,7,8-tetrahydronaphthalene-2-carboxylic acid] as the compound, how does the pIC50 read?
A: 8.37

Q: `CCCc1ccnc(Nc2cc(C)cc(-c3cnc([C@@]4(O)CCCc5cc(C(=O)O)ccc54)s3)n2)c1` [Example 3E, (5R)-5-hydroxy-5-(5-{4-methyl-6-[(4-propylpyridin-2-yl)amino]pyridin-2-yl}-1,3-thiazol-2-yl)-5,6,7,8-tetrahydronaphthalene-2-carboxylic acid] was tested. Which pIC50 did it give?
A: 9.38

Q: `Cc1cc(Nc2cc(C(C)F)ccn2)nc(-c2cnc([C@@]3(O)CCc4cc(C(=O)O)ccc43)s2)c1` (single isomer, unassigned) [Example 2K, (1R)-1-[5-(6-{[4-((R or S)-1-fluoroethyl)pyridin-2-yl]amino}-4-methylpyridin-2-yl)-1,3-thiazol-2-yl]-1-hydroxy-2,3-dihydro-1H-indene-5-carboxylic acid] was tested. Which pIC50 did it give?
A: 10.30

Q: How did the pIC50 turn out when `Cc1cc(Nc2cc(C3CCC(C)CC3)ccn2)nc(-c2cnc([C@@]3(O)CCCc4cc(C(=O)O)ccc43)s2)c1` (stereo partly drawn) [Example 3B, (5R)-5-hydroxy-5-[5-(4-methyl-6-{[4-(4-methylcyclohexyl)pyridin-2-yl]amino}pyridin-2-yl)-1,3-thiazol-2-yl]-5,6,7,8-tetrahydronaphthalene-2-carboxylic acid] was run?
A: 8.70
